Reference: patent US11400102B2, “Treatment for bacterial infections with salicylic acid analogs” (priority 2019, dated 2022)
“Also recorded” adds a separate entry of the source. Like-named read-outs stand apart in the source and are kept apart here.

What was measured:
[1] = system: enterobactin production (EntE); assay: Aryl acid adenylating enzyme inhibitors: enterobactin production by UTI89; format: cell-based, E. coli UTI89; details: AAAE inhibitors
Description: (§1) Restored yersiniabactin biosynthesis in a salicylate synthase deletion mutant (UTI89ΔybtS) during UTI led us to evaluate the pathway's subsequent biosynthetic enzyme—the aryl acid adenylating enzyme (AAAE) YbtE—as a drug target. UTI89ΔybtE produced no detectable yersiniabactin at 1 day, 1 week or 2 weeks following inoculation and is furthermore less virulent than wild type UTI89, as evidenced by a fewer chronically infected mice, a notable result for a non-conserved gene (FIG. 7A). We evaluated YbtE and its enterobactin pathway equivalent EntE as candidate drug targets using a series of six rationally-designed, non-hydrolyzable nucleoside AAAE inhibitors from the laboratory of Courtney Aldrich (see collaboration letter).

[2] = system: yersiniabactin production (YbtE); assay: Aryl acid adenylating enzyme inhibitors: yersiniabactin production by UTI89; format: cell-based, E. coli UTI89; details: AAAE inhibitors
Description: as §1
To test whether interference with the downstream adenylating enzyme, YbtE, could also affect yersiniabactin production, a series of YbtE inhibitors were applied to cultures of UTI89 and the Fe-Ybt peak ratio measured (FIG. 19). UT189 was grown overnight in medium supplemented with M63, DP and CAA and 100 μM of the tested compounds. […] Therefore, the salicylic analogs may act to inhibit YbtE, rather than YbtS, in the biosynthetic pathway to reduce overall production of yersiniabactin.

UPEC urinary growth = assay: Urinary growth assay in the presence of Lcn2; format: cell-based, uropathogenic E. coli; details: human urine
Description: Both neutrophils and epithelial cells produce and secrete the soluble protein Lipocalin 2 (Lcn2) into the urine and bladder lumen. Lcn2 binds a wide range of […] and their ferric complexes, presumably restricting their availability to bacteria (28). We used purified Lcn2, human urine specimens, and our panel of UPEC siderophore mutants to determine whether siderophore systems counteract Lcn2's presumed bacteriostatic activity. […] We further discovered that this phenotype varies between individual urines such that urinary growth is strongly enterobactin-dependent in some (“restrictive” individuals) and less so in others (“permissive” individuals). We have related this to a distinctive urinary metabolomic biomarker profile (29) in these individuals. […]
Restored yersiniabactin biosynthesis in a salicylate synthase deletion mutant (UTI89ΔybtS) during UTI led us to evaluate the pathway's subsequent biosynthetic enzyme—the aryl acid adenylating enzyme (AAAE) YbtE—as a drug target. […] We evaluated YbtE and its enterobactin pathway equivalent EntE as candidate drug targets using a series of six rationally-designed, non-hydrolyzable nucleoside AAAE inhibitors from the laboratory of Courtney Aldrich (see collaboration letter).

[3] = system: Ybt-deficient (UTI89ΔybtS) culture; assay: Copper toxicity and Ybt cytoprotection in Ybt-deficient culture; details: 10 μM cupric sulfate
Method: Growth was determined and expressed as total CFU ml^−1. […] For each patient, the difference in urinary and nonurinary strain growth is reported such that a positive value indicates prefential growth by the urinary isolate. In the four patients from whom multiple coincident urinary and nonurinary strains were recovered, the mean growth difference is reported. […] NS, nonsignificant, indicating P>0.05. […] Results are shown as mean±s.d.; n=3; *P<0.05, **P<0.01 and ***P<0.001.

[4] = system: yersiniabactin biosynthesis; assay: Culture screen of salicylate analogs for yersiniabactin (Fe-Ybt) in UTI89 supernatant by LC-MS; format: cell-based, uropathogenic E. coli UTI89; details: Escherichia coli, read-out: yersiniabactin inhibition
Description: While investigating in vivo Ybt production in the mouse cystitis model, we observed that a salicylate synthase-deficient uropathogen (UTI89ΔybtS) produces Ybt at near-wild type levels (FIG. 6A). We biochemically connected this phenotype to a uropathogenic ability to scavenge low level urinary salicylate (of presumed dietary origin) (31) as a yersiniabactin biosynthetic substrate. Both human and mouse urine chemically complemented UTI89ΔybtS in this manner, showing that low micromolar salicylate accesses cytoplasmic siderophore biosynthetic enzymes. […] Active compounds could be further divided into those that inhibit the yersiniabactin biosynthetic activity and those that displace the native salicylate substrate, resulting in a variant form of yersiniabactin (vYbt) containing the modified salicylate ring (see fluorinated yersiniabactin in FIG. 6D). The latter process, termed mutasynthesis, has been described for the related pyochelin siderophore system in Pseudomonas (32).
UTI189 cultures were grown overnight in media supplemented with M63+DP+CAA and 50 μM of a salicylic acid analog. Supernatants were then examined for ferric-Ybt and the area of the MS-peak corresponding to that complex was measured. […] In many cases, a 5-fold or greater reduction was observed (FIG. 17).
As described in Example 10, a culture based screen of yersiniabactin biosynthetic inhibitor candidates was undertaken. The screening protocol is described in FIG. 20; E. coli were cultured in 96 well plates at 37° C. in the presence of various yersiniabactin inhibitor candidates. The yersiniabactin secretion in the media was measured using LC-MS using an internal standard (leucine encephalin). Bacterial growth, measured by optical density, was assessed for general toxicity and LC-MS quantification of enterobactin, a related but chemically and biochemically distinct, siderophore in medium at endpoint was measured for off-target activity.

[5] = system: yersiniabactin production; assay: Dose response of yersiniabactin production in UTI89 culture; format: cell-based, Uropathogenic E. coli strain UTI89; details: for EC50: Escherichia coli
Method: Three biological triplicate experiments were completed wherein the % Ybt was measured relative to untreated controls (UTI189Δ189 in 70% ETOH). […] The experimental details describing how Ybt was quantified (using mass spectrometry) and how samples were prepared and treated are described in Chaturvedi, K S et al. Nature chemical biology. 8.8(2012):731-736.
FIGS. 25 and 26 show the effect of 5-methyl salicylic acid on yersiniabactin production in an E. coli culture. In FIG. 25, a dose response curve of yersiniabactin synthesis in the presence of increasing concentrations of 5-methyl-salicylate is shown. Uropathogenic E. coli strain UTI89 were grown in low iron culture with the indicated concentrations of 5-methyl salicylate. Yersiniabactin content of culture supernatants was measured by LC-MS/MS relative to an internal standard. The EC50 was determined to be 0.89±0.10 μM. In FIG. 26 a representative mass spectra is depicted illustrating the presence of yersiniabactin fragments in untreated control (left panel) that are missing in media treated with 5-methyl salicylic acid (right panel).
Uropathogenic bacteria were again grown in low iron culture in the presence of varying concentrations of salicylic acid serivatives having different methylation positions.

yersiniabactin = assay: Mutasynthesis study: incorporation of variant salicylic acids into yersiniabactin (LC-MS); format: cell-based, uropathogenic E. coli (UTI89ΔybtS)
Method: FIG. 11 depicts the experimental protocol for the screening assay. […] a strain of uropathogenic E. coli (UTI89ΔybtS) that cannot produce endogenous salicylic acid but can be chemically complemented with salicylic acid in growth medium. […]+1% casamino acids (CAA) and 20 μM 2′,2′-dipyridyl (DP) were added along with a variety of variant salicylic acids (Table 1) bearing different moieties on carbons 3 to 6. The amount of Ypt in the sample was then quantified using LC-MS.
Walking around the Figure from bottom left: -LC-MS method called neutral loss, where any molecule that loses 187 mass units that are characteristic of yersiniabactin, -different metal species of yersiniabactin can be detected in the supernatant of a UTI89 culture; these have distinct retention times by liquid chromatography; confirm that the molecules contributing to this LC peak are a variant yersiniabactin with a fluorine by the mass.

[6] = system: yersiniabactin production; assay: Yersiniabactin and intermediates (HPT, Esn) in clinical urinary E. coli isolates; format: cell-based; details: 50 μM, FIGS. 30-33
Method: The following clinical urinary E. coli isolates were chosen since they each secrete yersiniabactin: rUTI2, JMUSB64(490), JMUSB40(518), JMUSB115(530), JMUSB351(544), JMUB470(557), fCAUTI/B2 (sequence type ST131: ZZ13, ZZ15, ZZ16, ZZ18, ZZ22, and non ST131:ZZ23).
Specifically, HPT and escherichelin (Esn) were measured alongside the end product yersiniabactin. In addition, the production of enterobactin was measured as a counterscreen. In FIGS. 30-33, relative amounts of each analyte (HPT, Esn, Yrt) are depicted for each culture exposed to 50 μM of each inhibitor. A graph corresponding to reference UTI89 is reproduced in each figure (upper left).
There was negligible effect on enterobactin biosynthesis as well as less inhibition of biosynthetic precursors to yersiniabactin: HPT and HPTT. […] In this manner, HPTT/escherichelin production by E. coli may protect human hosts.

[7] = system: yersiniabactin production; details: FIG. 37
enterobactin production = details: FIG. 37

## Nc1ncnc2c1ncn2[C@@H]1O[C@H](COS(=O)(=O)NC(=O)c2cccc(O)c2O)[C@@H](O)[C@H]1O [DHB-AMS]
[1]
  enterobactin production by UTI89: completely inhibiting
[2]
  yersiniabactin production by UTI89: completely inhibiting
UPEC urinary growth
  phenotype in the urinary growth assay: mimicked an enterobactin biosynthesis mutant phenotype

## Nc1ncnc2c1ncn2[C@@H]1O[C@H](COS(=O)(=O)NC(=O)c2ccccc2O)[C@@H](O)[C@H]1O [Sal-AMS]
[1]
  enterobactin production by UTI89: completely inhibiting
[2]
  yersiniabactin production by UTI89: completely inhibiting

## O=S(=O)([O-])[O-].[Cu+2] [copper, cupric sulfate]
[3]
  decrease in viability: > 3 log CFU ml^−1

## O=C(O)c1ccc(Cl)cc1O [4-chlorosalicylic acid]
[4]
  inhibition at 50 µM: > 90%

## Cc1cccc(O)c1C(=O)O [6-methylsalicylic acid]
[5]; low iron culture, methylated salicylic acids, FIG. 27
  yersiniabactin inhibitory activity, dose response: limited activity
[4]
  inhibition at 50 µM: > 90%

## O=C(O)c1cc(F)ccc1O [5-fluorosalicylic acid]
yersiniabactin
  incorporation into variants of yersiniabactin: incorporated; also recorded: incorporation

## Cc1ccc(O)c(C(=O)O)c1 [5-methylsalicylic acid]
[5]; read-out: EC50, % Ybt relative to untreated controls
  EC50: ~1900 nM
[5]; read-out: EIC, inhibits biosynthesis in culture
  EC50: ~2000 nM
[5]; UTI89, low iron culture, LC-MS/MS, FIG. 25, read-out: EC50, yersiniabactin content of culture supernatants
  EC50: 890 ± 100 nM
[6]
  order of yersiniabactin inhibition, most potent to least potent: most potent
  yersiniabactin expression in a variety of strains: very effective
[4]
  inhibition at 50 µM: > 90%

## O=C(O)c1c(O)ccc2ccccc12 [2-hydroxy-1-naphthoic acid]
yersiniabactin; listed as 2-hydroxy-1-naphoic acid
  incorporation into variants of yersiniabactin: lack of incorporation
yersiniabactin; listed as 2-hydroxy-1-nathoic acid
  incorporation into variants of yersiniabactin: not incorporated

## O=C(O)c1c(O)cccc1F [6-fluorosalicylic acid]
[6]
  order of yersiniabactin inhibition, most potent to least potent: least potent
[4]
  inhibition at 50 µM: > 90%

## COc1cc(Cc2cnc(N)nc2N)cc(OC)c1OC [TMP, trimethoprim]
[7]
  yersiniabactin production: markedly decrease
Enterobactin production
  enterobactin production: not
